# Results published in patent US20240116946A1 (Gilead Sciences, Inc., priority 2022, published 2024).
# Read-outs that look alike come from different tables or passages of the source.
# Assays:
# [1] = target: recombinant SARS-CoV-2 Main protease (Mpro) (Severe acute respiratory syndrome coronavirus 2 (2019-nCoV) (SARS-CoV-2), UniProt P0DTD1); test: Cov Mpro Biochemical IC50 Assay; details: recombinant SARS-CoV-2 Mpro, fluorogenic peptide substrate; read-out: MPro IC50
# SARS-CoV-2-NLuc = test: microbe, parasite or virus in culture; format: cell-based, SARS Coronavirus 2
# [2] = Severe acute respiratory syndrome coronavirus, 48 h, read-out: MPro EC50
Compound,IC50 [1] [nM],EC50 (SARS-CoV-2-NLuc; [2]) [nM],"EC50 (SARS-CoV-2-NLuc; Severe acute respiratory syndrome coronavirus, 48 h; read-out: MPro EC50) [nM]"
O=C1COc2ccc(-c3cccc(Cl)c3-c3ccc4c(=O)n(-c5cncc6ccccc56)c(=O)[nH]c4c3)cc2N1 [Example 304],11.5,20.5,
O=c1[nH]c2cc(-c3c(Cl)cccc3-c3cnn4c3COCC4)ccc2c(=O)n1-c1cncc2ccccc12 [Example 305],8.8,12.8,
O=c1[nH]c2cc(-c3c(Cl)cccc3-c3cnn4c3CCCC4)ccc2c(=O)n1-c1cncc2ccccc12 [Example 306],8.21,5.19,
CN1C(=O)CCc2cc(-c3cccc(Cl)c3-c3ccc4c(=O)n(-c5cncc6ccccc56)c(=O)[nH]c4c3)ccc21 [Example 307],16.9,10.4,
"COc1ccc(C#N)c(-c2ccc3c(=O)n(-c4cncc5ccccc45)c(=O)[nH]c3c2)c1 [Example 308, 2-[3-(4-isoquinolyl)-2,4-dioxo-1H-quinazolin-7-yl]-4-methoxy-benzonitrile]",16.2,31.2,
COc1ccc(Cl)c(-c2cc3[nH]c(=O)n(-c4cncc5ccccc45)c(=O)c3cc2OC)c1 [Example 309],56.9,26.7,
Cn1cc(-c2cccc(Cl)c2-c2ccc3c(=O)n(-c4cncc5ccccc45)c(=O)[nH]c3c2)nn1 [Example 310],55.4,140,
Cn1ncc(-c2cccc(Cl)c2-c2ccc3c(=O)n(-c4cncc5ccccc45)c(=O)[nH]c3c2)c1C(F)F [Example 311],45.3,25,
COc1ccc(C#N)c(-c2cc3[nH]c(=O)n(-c4cncc5ccccc45)c(=O)c3cc2OC)c1 [Example 312],14.3,20.4,
Cc1nnn(C)c1-c1cccc(Cl)c1-c1ccc2c(=O)n(-c3cncc4ccccc34)c(=O)[nH]c2c1 [Example 313],40.8,145,
CN1CCOc2cc(-c3cccc(Cl)c3-c3ccc4c(=O)n(-c5cncc6ccccc56)c(=O)[nH]c4c3)ccc21 [Example 314],456,72.9,
CN1C(=O)CC(C)(C)c2cc(-c3cccc(Cl)c3-c3ccc4c(=O)n(-c5cncc6ccccc56)c(=O)[nH]c4c3)ccc21 [Example 315],42,40.2,
COc1cc(-c2ccc3c(=O)n(-c4cncc5ccccc45)c(=O)[nH]c3c2)c(Cl)cc1Cl [Example 316],1070,322,
Cc1cc(-c2cccc(Cl)c2-c2ccc3c(=O)n(-c4cncc5ccccc45)c(=O)[nH]c3c2)cc(C#N)n1 [Example 317],11,4.97,
O=c1[nH]c2cc(-c3c(Cl)cccc3-c3ccnc(C4CC4)c3)ccc2c(=O)n1-c1cncc2ccccc12 [Example 318],8.65,< 3.42,
COc1cc(-c2ccc3c(=O)n(-c4cncc5ccccc45)c(=O)[nH]c3c2)c(C#N)cc1F [Example 319],10.7,27.9,
Cc1ncccc1-c1cccc(Cl)c1-c1ccc2c(=O)n(-c3cncc4ccccc34)c(=O)[nH]c2c1 [Example 320],16,14.1,
Cc1nn(C2COC2)c(C)c1-c1cccc(Cl)c1-c1ccc2c(=O)n(-c3cncc4ccccc34)c(=O)[nH]c2c1 [Example 321],8.28,25.1,
COc1ccc(Cl)c(-c2ccc3c(=O)n(-c4cncc5ccccc45)c(=O)[nH]c3c2)c1F [Example 322],3530,1300,
N#Cc1cc(F)c(F)cc1-c1ccc2c(=O)n(-c3cncc4ccccc34)c(=O)[nH]c2c1 [Example 323],112,557,
"COc1cc(-c2cc3[nH]c(=O)n(-c4cncc5ccccc45)c(=O)c3cc2OC)c(C#N)cc1F [Example 324, 5-fluoro-2-[3-(4-isoquinolyl)-6-methoxy-2,4-dioxo-1H-quinazolin-7-yl]-4-methoxy-benzonitrile]",7.02,,18.1
O=c1[nH]c2cc(-c3c(Cl)cccc3-c3cnn4c3OCCC4)ccc2c(=O)n1-c1cncc2ccccc12 [Example 325],15.8,27.9,
